Test results reported in patent US8530385B2, “Herbicidal formulations for combinations of dimethylamine and potassium salts of glyphosate” (Donaghys Industries Limited, priority 2007, dated 2013).

Conditions: laboratory conditions; fully loaded with surfactant
Text: Dimethylamine is a flammable gas and generally provided as an aqueous solution at concentrations of about 40%. As such, it is difficult to obtain highly concentrated salts of glyphosate using only DMA solution as starting material.
In contrast to IPA, DMA has a […] flash and boiling point and supplied as 40% solution.

SMILES: CNC.O=C(O)CNCP(=O)(O)O [DMA glyphosate, dimethylamine salt of glyphosate]
- maximum stable fully loaded concentration of glyphosate: 560 gae/L
